Measured values as given in US20040224014A1, “Non-hygroscopic pharmaceutical compositions containing non-hydrated quinoline carboxylic acids” (The Jordanian pharmaceutical manufacturing Co., priority 2003, published 2004).

Assay: Water uptake of norfloxacin and its formulations (FIG. 1)
Assay type: physicochemical
Conditions: depending on manufacturing procedure (wet or dry granulation) and storage temperature and humidity
Excerpt: The water uptake for norfloxacin and its formulations may reach up to 30% and more depending on the manufacturing procedures (wet or dry granulation), and storage conditions of temperature and humidity (see FIG. 1).

water uptake: ~30%
SMILES: CCn1cc(C(=O)O)c(=O)c2cc(F)c(N3CCNCC3)cc21 [norfloxacin]
